Experimental findings from patent publication US11878972B2, “Treatment of neurological disorders” (TORQUR AG, priority 2016, dated 2024) are described below.

Test [1] concerns R6/2 mice (mutHTT aggregates in the striatum). In words: Immunohistochemistry of mutHTT aggregates in striata of long-term treated R6/2 mice. It is filed as in vivo, mouse. The note with it: p.o. 11.5 weeks, Cpd. 3 65 mg/kg, Cpd. 8 16.25 mg/kg, versus vehicle controls. The source says:
An in vivo model of Huntington's disease was used to evaluate the efficacy of Cpd. 3 and cpd. 8 in reducing mutHTT aggregate formation in the striatum. R6/2 mice are a B6CBA-Tg(HDexon1)62Gbp/3J Huntington's disease mouse model expressing exon 1 of the human huntingtin gene with an extension of 160 f 5 CAG repeats. Mice have a severe phenotype that develops between 4 and 12 weeks.
Treatment groups were established from genotype and measurement of weight, rotarod performance and litter. They were distributed equally over the four groups, each group contained 12 animals. R6/2 mice and their wt counterparts were dosed in the following treatment groups: 1. Wt, vehicle (20% SBECD in water, pH 3); 2. R6/2 vehicle (20% SBECD in water, pH 3); 3. R6/2 Cpd. 3 (65 mg/kg); 4. R6/2 Cpd.8 (16.25 mg/kg). Per oral dosing was performed for 6 days with a following drug holiday of 1 day for a total of 11.5 weeks.
To detect mutHTT aggregates, immunostaining of striata was performed. […]
Images were acquired using a Zeiss Axioplan microscope (Plan-NEOFLUAR×40/0.75 objective, AxioCam MRc) and Axiovision 4.8 software (Carl Zeiss Microscopy GmbH, Jena, Germany). Per animal three subsequent sections of the striatum were analyzed, 4 animals were analysed The EM48 positive structures were analyzed with the ImageJ built in particle analysis, with a fixed threshold for all pictures (ImageJ 1.47v; NIH, Bethesda, MD, USA). […]

In test [2] the test system is LC3-II in STHdh^Q7/Q7 and STHdh^Q111/Q111 cells. In words: Induction of autophagy in STHdh cells (LC3-II, western blot). It is filed as cell-based, mouse. Conditions: striatal cells, 4 hours, presence and absence of Bafilomycin A. The protocol: In order to test whether Cpd. 3 and Cpd. 8 inhibit mTOR signaling and induce autophagy in neuronal cell models of HD, treatment of STHdh^Q111/Q111 and STHdh^Q7/Q7 cells was employed. […] Cells were seeded in 10 cm dishes. When cells were about 80% confluent, cells were differentiated and treated with compounds at the same time. Cells were treated with Cpd. 3 (200 nM, 400 nM, 1230 nM), Cpd. […] At the end of incubation time cells were washed with cold PBS buffer and lysed with 200 μl of RIPA buffer supplemented with 4% Complete protease inhibitor (Roche, Switzerland) and 10% PhosStop (Roche, Switzerland). After 30 min of incubation on ice, lysates were vortexed, centrifuged (20 min, 4° C., 16000 rpm) and supernatants were collected. Protein concentration was determined as described above. 30 μg of protein per sample was analyzed by western blot as described above using the following primary antibodies:
In order to detect levels of LC3-II, an autophagy marker in autophagosomes, cell treatment was performed in the presence and absence of Bafilomycin A, an inhibitor of autophagosome degradation. Thus compounds lead to accumulation of LC3-II levels when autophagy is induced. Cpd. 3 (FIG. 6C) and Cpd. […] For Cpd. […] Cpd.
A general note: Immunoblotting shows a protein as a band on a membrane.

Test [3] concerns Tsc1GFAP knockout mice. As to the kind of experiment: Electrographic seizures in Tsc1 GFAP conditional knockout mice.
Protocol: Tsc1 mice belonging to either sex were acclimated to the environment, examined, handled, and weighed prior to initiation of the study to assure adequate health and suitability and to minimize non-specific stress associated with human handling. During the course of the study, 12/12 light/dark cycles were maintained. The room temperature was maintained between 20 and 23° C. with a relative humidity maintained around 50%. Food and water were provided ad libitum for the duration of the study. Each mouse was randomly assigned to designated treatment groups. The dosing was performed during the animals' light cycle phase.
Aseptic technique was used throughout the surgical procedures described below. […] Adequate plane of anesthesia was insured by the lack of a withdrawal response to toe pinch and a visible change in the breathing rate. The mouse head was immobilized in a stereotaxic frame with a nose piece that supplied the anesthetic continuously. Ophthalmic ointment was applied to the eyes to prevent drying of the cornea. […]
EEG was recorded using 10× or 100× gain pre-amplifiers. […]
Simultaneously, videographic recording was made through this period to provide a data stream for behavioral evaluation of the mice as needed. After the recording period was completed, individual EEG traces were evaluated for aberrant EEG activity. […]
Test [4] concerns mTOR signaling cascade (phosphorylation of S6rP and AKT). In words: Target engagement in brain and thigh muscle (western blot). It is filed as in vivo, mouse. The note with it: single oral 50 mg/kg. As to the method: Tissue was snap frozen in liquid nitrogen and stored at −80° C. Tissue was thawed and lysed in RIPA buffer 1 ml/half brain. Complete protease inhibitor and PhosStop phosphatase inhibitor (Roche) was added to the buffer before lysis. Tissue was homogenized manually and centrifuged twice at 16000 rpm, 4° C. for 20 minutes. Supernatant was frozen with 10% glycerol at −80° C. Protein concentration was performed using Bradford reagent. For western blot analysis of AKT and S6rP phosphorylation, 30 μg of protein was denatured with β-mercaptoethanol at 95° C. and separated on SDS page gels at 100 V. Then proteins were transferred to a nitrocellulose membrane (Bio-Rad, USA) at 80 V. Non-specific binding was blocked with 5% bovine serum albumin (BSA) (Sigma-Aldrich, USA). Membranes were incubated over night with primary antibody dissolved in TBST, 5% BSA at 4° C. and with secondary antibody coupled to horseradish peroxidase (GE Healthcare, UK) for 1 hour at RT and washed. Imaging of protein bands was performed using Luminol (Biozym, Hamburg, Germany. On a Li-Cor Odyssey FC reader. Quantification of S6-phosphorylation was determined with the same imaging system.
The following antibodies were used: • AKT, P-AKT (S473), S6rP, P-S6rP(S235/236): Cell Signaling (UK) • β-actin: Sigma Aldrich, USA

The test system of test [5] is pS6 S235/S236 in A2058 cells. As to the kind of experiment: In-cell Western blot, pS6 S235/S236. It is filed as cell-based. The note with it: Homo sapiens, A2058, 1 h, treated for 1 hour, normalized to α-tubulin.
Protocol: Cells are fixed with 4% paraformaldehyde for 30 minutes at room temperature, washed 2 times with 1% BSA in PBS, permeabilized with 0.1% Triton X-100 in PBS/1% BSA for 30 minutes at room temperature and blocked with 5% goat serum in PBS/1% BSA/0.1% Triton X-100 for 30 minutes at room temperature. […] Cells are washed 3 times 5 minutes with PBS/1% BSA/0.1% triton and plate scanned with the Odyssey Infrared Scanning system using both 700 and 800 nm channels. […] To correct for background staining in the data analysis wells are treated only with secondary antibodies.
For data analysis the mean background signal from channel 700 nm and 800 nm are subtracted from each signal in channel 700 nm and 800 nm, respectively.
IC50 values of each compound are determined by plotting the normalized pPBK S473 and pS6 S235/S236 signals, respectively, versus the compound concentrations (in logarithmic scale) and then by fitting a sigmoidal dose-response curve with variable slope to the data using GraphPad™ Prism.

For orientation: IC50 means the concentration at which inhibition is half-maximal. Lower therefore signals greater potency.

For `Nc1cc(C(F)F)c(-c2nc(N3C4CCC3COC4)nc(N3C4CCC3COC4)n2)cn1` [Compound 3, 5-(4-(3-oxa-8-azabicyclo[3.2.1]octan-8-yl)-6-(3-oxa-8-azabicyclo[3.2.1]octan-8-yl)-1,3,5-triazin-2-yl)-4-(difluoromethyl)pyridin-2-amine], the “number of mutHTT aggregates counted in striata” value in test [1] is recorded as “not changed”. Further, the “autophagy (LC3-II levels)” value in test [2] is listed as “induced autophagy in striatal cells”. The Body weight entry in test [3] (TSC1 GFAP mice, during treatment) is recorded as “higher towards the end of the study”. Besides, the “effect on spontaneous electrographic seizures” value in test [3] (Tsc1 GFAP mice, chronic treatment) is given as “strongly reduce spontaneous seizures”. Moreover, the “phosphorylation of S6rP and AKT in brain and thigh muscle” value in test [4] (B57BL/6J mice) was “significantly reduced phosphorylation of S6rP and AKT”. In addition, in test [4] (mice, 30 minutes to 8 hours), the “S6 phosphorylation in brain lysates” value is “reduction of S6 phosphorylation” and the “S6 phosphorylation in thigh muscle lysates” value is given as “reduction of S6 phosphorylation”.

In test [5], `C[C@H]1COCCN1c1nc(-c2cnc(N)cc2C(F)F)nc(N2CCOCC2)n1` [Compound 8, (S)-4-(difluoromethyl)-5-(4-(3-methylmorpholino)-6-morpholino-1,3,5-triazin-2-yl)pyridin-2-amine] yielded an IC50 of 68 nM.
